From patent publication US7825114B2, “Substituted aminopyrazolopyridines and salts thereof, pharmaceutical compositions comprising same, methods of preparing same and uses of same” (Bayer Schering Pharma AG, priority 2006, dated 2010)

Experiments:
Tie2 vs. KDR [1] = settings: Albert et al. Mol. Cancer. Ther. 2006, 5, 995; cited from earlier work
Tie2 vs. KDR [2] = settings: Albert et al. Mol. Cancer. Ther. 2006, 5, 995; cited from earlier work; remark: listed apart in the source
human c-kit = target: T1, human c-kit (Homo sapiens, UniProt P10721); experiment: cKIT-Kinase HTRF-Assay (assay 4); assay type: biochemical; settings: for IC50: GST-tagged kinase domain of human c-kit, 10 μM ATP; for Selectivity vs. cKit: IC50 assay 4/IC50 assay 2
T1 construct: GST-tagged recombinant kinase domain of the human c-kit; GST; host or cells: SF-9 insect cells
Procedure: Assay 4: cKIT-Kinase HTRF-Assay
c-Kit-inhibitory activity of compounds of the present invention was quantified employing the c-kit HTRF assay as described in the following paragraphs. GST-tagged recombinant kinase domain of the human c-kit expressed in SF-9 cells was used as kinase. As substrate for the kinase reaction biotinylated poly-(Glu,Tyr) (Cis biointernational, France) was used.
c-Kit was incubated for 30 min at 22° C. in the presence of different concentrations of test compounds in 5 μl assay buffer [50 mM Hepes/NaOH pH 7.0, 1 mM MgCl2, 5 mM MnCl2, 1.0 mM dithiothreitol, 0.1 mM sodium ortho-vanadate, 10 μM adenosine-tri-phosphate (ATP), 1.3 μg/ml substrate, 0.001% (v/v) Nonidet-P40 (Sigma), 1% (v/v) dimethylsulfoxide]. The concentration of c-kit was adjusted depending of the activity of the enzyme lot and was chosen appropriate to have the assay in the linear range. The reaction was stopped by the addition of 5 μl of a solution of HTRF detection reagents (0.1 μM streptavidine-XLent and 1 nM PT66-Eu-Chelate, an europium-chelate labelled anti-phospho-tyrosine antibody from Perkin Elmer) in an aqueous EDTA-solution (80 mM EDTA, 0.2% (w/v) bovine serum albumin in 50 mM HEPES/NaOH pH 7.0).
(§1) The resulting mixture was incubated 1 h at 22° C. to allow the binding of the biotinylated phosphorylated peptide to the streptavidine-XLent and the PT66-Eu-Chelate. Subsequently the amount of phosphorylated substrate was evaluated by measurement of the resonance energy transfer from the PT66-Eu-Chelate to the streptavidine-XLent. Therefore, the fluorescence emissions at 620 nm and 665 nm after excitation at 350 nm was measured in a HTRF reader, e.g. a Rubystar (BMG Labtechnologies, Offenburg, Germany) or a Viewlux (Perkin-Elmer). The ratio of the emissions at 665 nm and at 622 nm was taken as the measure for the amount of phosphorylated substrate.

Tie2 [3] = target: T2, Tie2 (Homo sapiens, UniProt Q02763); experiment: Tie2 ELISA assay (assay 1): cellular Tie2 autophosphorylation; assay type: cell-based; set-up: expressed in transfected cells; host or cells: CHO (DHFR-deficient), stably transfected; settings: CHO cells stably transfected with Tie2, stimulated by angiopoietin-2; Tie2 autophosphorylation by sandwich-ELISA; read-out: Tie 2 activity (assay 1)
Procedure: Assay 1: Tie2 ELISA Assay
Cellular activity of compounds of the present invention as inhibitors of Tie2 kinase activity was measured employing a Tie2 ELISA assay as described in the following paragraphs. Herein CHO cell-cultures, which are stably transfected by known techniques with Tie2 using DHFR deficiency as selection marker, are stimulated by angiopoietin-2. The specific autophosphorylation of Tie2 receptors is quantified with a sandwich-ELISA using anti-Tie2 antibodies for catch and anti-phosphotyrosine antibodies coupled to HRP for detection. […]
Target sequence in this assay (Q02763 23-1124): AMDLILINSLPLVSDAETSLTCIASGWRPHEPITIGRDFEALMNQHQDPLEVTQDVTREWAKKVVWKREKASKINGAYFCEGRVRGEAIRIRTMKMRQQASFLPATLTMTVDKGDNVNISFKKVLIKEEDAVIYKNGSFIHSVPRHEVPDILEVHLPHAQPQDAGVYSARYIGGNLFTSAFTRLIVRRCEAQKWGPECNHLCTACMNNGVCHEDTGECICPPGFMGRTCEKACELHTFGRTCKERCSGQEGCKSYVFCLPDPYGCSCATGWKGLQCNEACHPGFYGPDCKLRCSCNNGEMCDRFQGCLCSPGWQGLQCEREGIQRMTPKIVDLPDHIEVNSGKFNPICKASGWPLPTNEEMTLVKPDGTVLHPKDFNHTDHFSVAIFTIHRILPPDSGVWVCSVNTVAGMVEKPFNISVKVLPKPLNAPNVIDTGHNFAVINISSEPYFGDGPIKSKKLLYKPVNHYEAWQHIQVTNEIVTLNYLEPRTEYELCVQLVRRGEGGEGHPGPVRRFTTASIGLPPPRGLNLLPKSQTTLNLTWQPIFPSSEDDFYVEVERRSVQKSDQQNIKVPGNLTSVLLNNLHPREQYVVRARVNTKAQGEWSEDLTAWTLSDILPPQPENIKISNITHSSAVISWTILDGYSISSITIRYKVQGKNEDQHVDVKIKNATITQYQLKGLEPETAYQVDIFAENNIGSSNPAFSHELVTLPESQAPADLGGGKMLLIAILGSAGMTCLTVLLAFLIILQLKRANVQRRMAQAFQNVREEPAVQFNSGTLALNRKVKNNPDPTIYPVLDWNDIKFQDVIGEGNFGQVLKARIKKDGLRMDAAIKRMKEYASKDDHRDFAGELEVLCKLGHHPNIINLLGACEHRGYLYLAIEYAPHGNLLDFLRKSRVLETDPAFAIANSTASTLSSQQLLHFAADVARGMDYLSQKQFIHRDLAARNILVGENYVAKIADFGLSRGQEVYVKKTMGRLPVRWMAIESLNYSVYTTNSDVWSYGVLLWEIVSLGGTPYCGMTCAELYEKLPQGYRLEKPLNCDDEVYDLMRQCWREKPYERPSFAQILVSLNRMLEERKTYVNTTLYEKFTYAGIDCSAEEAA

Tie2 [4] = target: T2, Tie2; experiment: Tie-2-Kinase HTRF-Assay without kinase preactivation (assay 2); assay type: biochemical; set-up: A recombinant fusion protein of GST and the intracellular domains of Tie-2; GST; made in house; host or cells: insect cells (Hi-5); settings: GST-Tie-2 intracellular domains, no preactivation, 10 μM ATP
Description: Assay 2: Tie-2-Kinase HTRF-Assay without Kinase Preactivation
Tie2-inhibitory activity of compounds of the present invention was quantified employing two Tie2 HTRF assay as described in the following paragraphs.
A recombinant fusion protein of GST and the intracellular domains of Tie-2, expressed in insect cells (Hi-5) and purified by Glutathion-Sepharose affinity chromatography was used as kinase. Alternatively, commercially available GST-Tie2-fusion protein (Upstate Biotechnology, Dundee, Scotland) can be used As substrate for the kinase reaction the biotinylated peptide biotin-Ahx-[…] (C-terminus in amid form) was used which can be purchased e.g. from the company Biosynthan GmbH (Berlin-Buch, Germany). Detection of phosphorylated product is achieved specifically by a trimeric detection complex consisting of the phosphorylated substrate, streptavidin-XLent (SA-XLent) which binds to biotin, and Europium Cryptate-labeled anti-phosphotyrosine antibody PT66 which binds to phosphorylated tyrosine.
The reaction was stopped by the addition of 5 μl of an aqueous buffer (25 mM Hepes/NaOH pH 7.5, 0.28% (w/v) bovine serum albumin) containing EDTA (90 mM) and the HTRF (Homogeneous Time Resolved Fluorescence) detection reagents streptavidine-XLent (0.2 μM, from Cis Biointernational, Marcoule, France) and PT66-Eu-Chelate (0.3 ng/μl; a europium-chelate labelled anti-phospho-tyrosine antibody from Perkin Elmer).
as §1, with “substrate peptide” for “substrate”, “substrate peptide.” for “substrate.”
Target sequence in this assay (Q02763 770-1124 limits assumed): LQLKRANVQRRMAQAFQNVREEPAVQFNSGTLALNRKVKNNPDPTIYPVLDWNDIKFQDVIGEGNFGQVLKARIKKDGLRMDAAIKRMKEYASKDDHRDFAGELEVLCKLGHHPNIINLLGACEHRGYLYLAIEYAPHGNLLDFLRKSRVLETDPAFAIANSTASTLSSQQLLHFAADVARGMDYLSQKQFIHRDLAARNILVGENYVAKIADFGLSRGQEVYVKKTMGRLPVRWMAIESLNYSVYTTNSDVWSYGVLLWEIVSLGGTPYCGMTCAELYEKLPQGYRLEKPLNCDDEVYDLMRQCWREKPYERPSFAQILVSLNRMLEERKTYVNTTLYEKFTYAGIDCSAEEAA

T1 sequence (P10721 589-937 limits assumed): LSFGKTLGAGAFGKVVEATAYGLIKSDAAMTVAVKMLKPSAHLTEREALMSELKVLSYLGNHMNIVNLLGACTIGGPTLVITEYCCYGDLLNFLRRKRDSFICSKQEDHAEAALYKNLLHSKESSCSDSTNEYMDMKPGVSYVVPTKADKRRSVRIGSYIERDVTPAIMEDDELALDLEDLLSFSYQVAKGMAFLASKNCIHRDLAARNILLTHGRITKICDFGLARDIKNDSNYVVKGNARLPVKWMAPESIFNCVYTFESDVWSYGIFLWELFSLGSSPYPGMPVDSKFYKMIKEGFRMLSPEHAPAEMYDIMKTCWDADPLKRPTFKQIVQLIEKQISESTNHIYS

Row | SMILES | times less active against Tie2 vs. KDR in enzymatic assays (Tie2 vs. KDR [1]) | times less active against Tie2 than KDR in cellular assays (Tie2 vs. KDR [2]) | IC50 (human c-kit) | Selectivity vs. cKit (human c-kit) | IC50 (Tie2 [3]) | IC50 (Tie2 [4])
1 | Cc1ccc(F)c(NC(=O)Nc2ccc(-c3cccc4[nH]nc(N)c34)cc2)c1 [PA1, 1-[4-(3-Amino-1H-indazol-4-yl)-phenyl]-3-(2-fluoro-5-methyl-phenyl)-urea] | ~40 times | ~1000 times |  |  |  | 
2 | CCNC(=O)C1(c2cc(-c3ccc(NC(=O)Nc4cccc(C(F)(F)F)c4)cc3)c3c(N)nn(C)c3n2)CC1 [Example 1.5, 1-(3-Amino-1-methyl-4-{4-[3-(3-trifluoromethyl-phenyl)-ureido]-phenyl}-1H-pyrazolo[3,4-b]pyridin-6-yl)-cyclopropanecarboxylic acid ethylamide] |  |  | 1000 to 10000 nM | >100 | 100 to 1000 nM | ≤ 100 nM
3 | CCOC(=O)C1(c2cc(-c3ccc(NC(=O)Nc4cccc(C(F)(F)F)c4)cc3)c3c(N)nn(C)c3n2)CC1 [Example 1.2, 1-(3-Amino-1-methyl-4-{4-[3-(3-trifluoromethyl-phenyl)-ureido]-phenyl}-1H-pyrazolo[3,4-b]pyridin-6-yl)-cyclopropanecarboxylic acid ethyl ester] |  |  | 1000 to 10000 nM | >30 | ≤ 100 nM | ≤ 100 nM
4 | Cn1nc(N)c2c(-c3ccc(NC(=O)Nc4cccc(C(F)(F)F)c4)cc3)cc(C3(C(=O)Nc4ccccc4)CC3)nc21 [Example 1.7, 1-(3-Amino-1-methyl-4-{4-[3-(3-trifluoromethyl-phenyl)-ureido]-phenyl}-1H-pyrazolo[3,4-b]pyridin-6-yl)-cyclopropanecarboxylic acid phenylamide] |  |  | 1000 to 10000 nM | 7 | 100 to 1000 nM | 100 to 1000 nM
5 | Cc1ccc(F)c(NC(=O)Nc2ccc(-c3ccnc4c3c(N)nn4C)cc2)c1 [PA5, 1-[4-(3-Amino-1-methyl-1H-pyrazolo[3,4-b]pyridin-4-yl)-phenyl]-3-(2-fluoro-5-methyl-phenyl)-urea, reference compound] |  |  | ≤ 100 nM | 0.5 | ≤ 100 nM | 100 to 1000 nM
6 | CN(C)C(=O)C1(c2cc(-c3ccc(NC(=O)Nc4cccc(C(F)(F)F)c4)cc3)c3c(N)nn(C)c3n2)CC1 [Example 1.10, 1-(3-Amino-1-methyl-4-{4-[3-(3-trifluoromethyl-phenyl)-ureido]-phenyl}-1H-pyrazolo[3,4-b]pyridin-6-yl)-cyclopropanecarboxylic acid dimethylamide] |  |  | 1000 to 10000 nM | 12 | ≤ 100 nM | ≤ 100 nM
7 | Cn1nc(N)c2c(-c3ccc(NC(=O)Nc4cccc(C(F)(F)F)c4)cc3)ccnc21 [PA4, 1-[4-(3-Amino-1-methyl-1H-pyrazolo[3,4-b]pyridin-4-yl)-phenyl]-3-(3-trifluoromethyl-phenyl)-urea, reference compound] |  |  | 100 to 1000 nM | 1.6 | ≤ 100 nM | ≤ 100 nM
8 | Cn1nc(N)c2c(-c3ccc(NC(=O)Nc4cccc(C(F)(F)F)c4)cc3)cc(C3(C(=O)NCCN4CCOCC4)CC3)nc21 [Example 1.8, 1-(3-Amino-1-methyl-4-{4-[3-(3-trifluoromethyl-phenyl)-ureido]-phenyl}-1H-pyrazolo[3,4-b]pyridin-6-yl)-cyclopropanecarboxylic acid (2-morpholin-4-yl-ethyl)-amide] |  |  | 1000 to 10000 nM | 15 | ≤ 100 nM | 100 to 1000 nM
9 | Cn1nc(N)c2c(-c3ccc(NC(=O)Nc4cccc(C(F)(F)F)c4)cc3)cc(C3CCC3)nc21 [Example 6.1, 1-[4-(3-Amino-6-cyclobutyl-1-methyl-1H-pyrazolo[3,4-b]pyridin-4-yl)-phenyl]-3-(3-trifluoromethyl-phenyl)-urea] |  |  | 1000 to 10000 nM | 20 | ≤ 100 nM | ≤ 100 nM
10 | Cn1nc(N)c2c(-c3ccc(NC(=O)Nc4cccc(C(F)(F)F)c4)cc3)cc(C3(C(N)=O)CC3)nc21 [Example 2.1, 1-(3-Amino-1-methyl-4-{4-[3-(3-trifluoromethyl-phenyl)-ureido]-phenyl}-1H-pyrazolo[3,4-b]pyridin-6-yl)-cyclopropanecarboxylic acid amide] |  |  | 100 to 1000 nM | 6 | ≤ 100 nM | ≤ 100 nM
11 | Cn1nc(N)c2c(-c3ccc(NC(=O)Nc4cccc(C(F)(F)F)c4)cc3)cc(C3(C(=O)N4CCCC4)CC3)nc21 [Example 1.13, 1-(4-{3-Amino-1-methyl-6-[1-(pyrrolidine-1-carbonyl)-cyclopropyl]-1H-pyrazolo[3,4-b]pyridin-4-yl}-phenyl)-3-(3-trifluoromethyl-phenyl)-urea] |  |  | 1000 to 10000 nM | >100 | ≤ 100 nM | ≤ 100 nM
